Key:
[1] = system: premalignant and malignant HBE cell lines; assay: MTT proliferation assay, premalignant and malignant HBE cell lines; type: cell-based; conditions: Homo sapiens, range tested 10^−9 M to 10^−7 M, read-out: IC50 (growth inhibition)
Experimental: (§1) To measure the effects of deguelin on cell proliferation, NHBE, 1799, 1198, 1170-1, and HB56B cells were plated at concentrations of 2×10^3 to 4×10^3 cells/well in 96-well plates. The next day, cells were treated with either 0.1% DMSO as a diluent control or various concentrations of deguelin (final DMSO concentration=0.1%). At the end of the assay time period, cell proliferation was measured by the 3-(4,5-dimethylthiazol-2-yl)-2,5-diphenyltetrazolium bromide (MTT) assay as described (Lee et al., 2002). Six replicate wells were used for each analysis, and data from replicate wells are presented as means with 95% confidence intervals (CIs). For some experiments, the drug concentration required to inhibit cell growth by 50% (IC50) was determined by interpolation from dose-response curves. At least three independent experiments were performed.

[2] = system: 1799 cells; assay: MTT proliferation assay, 1799 cells; type: cell-based, human
Experimental: as §1
(§2) To determine whether deguelin-induced antiproliferative effects on premalignant HBE cells were mediated through the inhibition of the PI3K/Akt pathway, 2×10^5 1799 cells/well or 1×10 ^6 squamous HBE cells/well in six-well plates were infected with 5×10 ^3 particles/cell of a control virus (Ad5CMV) or with 1×10^3 or 5×10^3 particles/cell of Ad5CMV-MyrAkt-HA, an adenoviral vector that expresses a constitutively active Akt. (MyrAkt) in KSFM. After 1 day of infection, cells were treated with 10^−7M or 10^−6M deguelin, 2×10^−6 M or 4×10^−6M N-(4-hydroxyphenyl)retinamide (4-HPR), or 0.1% DMSO as a control and then incubated for 1 or 2 days. Apoptosis was analyzed using the APO-BrdU staining kit for TUNEL, Western blot analyses for caspase-3, and the cleavage of PARP.

[3] = system: NHBE cells; assay: MTT proliferation assay, NHBE cells (deguelin); type: cell-based, human; conditions: 10^−9 M to 10^−7 M
Experimental: as §1

[4] = system: 1799 cells; assay: Apoptosis by APO-BrdU (modified TUNEL) flow cytometry, 1799 cells; type: cell-based, human
Experimental: (§3) NHBE, premalignant (1799 and 1198), and malignant (1170-1) HBE (2×10^6) cells were exposed to various doses of deguelin or to DMSO (0.1%) for 3 days. Apoptosis was assessed by morphology, by a flow cytometry-based, modified terminal deoxynucleotidyl transferase dUTP nick end labeling (TUNEL) assay, and by the detection of fragmented DNA. For morphology, live cells were observed by light microscopy using a ×100 objective. For TUNEL analysis, both adherent and nonadherent cells were harvested and pooled, fixed with 1% paraformaldehyde and 70% ethanol, and processed using the APO-BrdU staining kit (Phoenix Flow Systems, San Diego, Calif.), a modified TUNEL assay, as described (Lee et al., 2002). Cells treated with DMSO were used to gate the control nonapoptotic populations and as a reference for cells treated with deguelin. An internal control (HL-60 cells treated with camptothecin to induce apoptosis) provided in the apoptosis detection kit was also used to ensure that the TUNEL reaction was occurring during the staining procedure. For the detection of fragmented nucleosomal DNA, cells were processed using the TACS apoptotic DNA laddering kit (Trevigen Inc., Gaithersburg, Md.), according to the manufacturer's recommended protocol.
as §2

[5] = system: NHBE cells; assay: Apoptosis by TUNEL and DNA fragmentation, NHBE cells; type: cell-based, human
Experimental: as §3

[6] = system: squamous HBE cells; assay: Immunoblot of pAkt, pGSK-3β, caspase-3 and PARP, squamous HBE cells; type: cell-based, human
Experimental: Whole cell lysates from 1×10^6 cells were prepared in lysis buffer as described (Lonardo et al., 2002). Equivalent amounts of protein were resolved by sodium dodecyl sulfate (SDS)-polyacrylamide gels (7.5%-12%) and transferred to a nitrocellulose membrane. After the membrane was blocked in Tris-buffered saline (TBS) containing 0.05% Tween 20 (TBST) and 5% (w/v) nonfat powdered milk, the membrane was incubated with primary antibody at the appropriate dilution in TBS-5% nonfat milk at 4° C. for 16 h. The membrane was then washed multiple times with TBST and incubated with the appropriate horseradish peroxidaseconjugated secondary antibody for 1 h at room temperature. The protein-antibody complexes were detected by enhanced chemilurminescence (ECL kit; Amersham, Arlington Heights, Ill.), according to the manufacturer's recommended protocol.
as §2, with “(MyrAkt) in KSFM. After 1 day of infection, cells were treated with 10^−7M or 10^−6M deguelin, 2×10^−6 M or 4×10^−6M N-(4-hydroxyphenyl)retinamide (4-HPR), or 0.1% DMSO as a control and then incubated for 1 or 2 days.” left out

[7] = system: 1198 and 1170-1 cells; assay: Apoptosis by TUNEL and DNA fragmentation, 1198 and 1170-1 cells; type: cell-based, human; conditions: treatment for 1 day
Experimental: as §3, with “NHBE, premalignant (1799 and 1198), and malignant (1170-1) HBE (2×10^6) cells were exposed to various doses of deguelin or to DMSO (0.1%) for 3 days.” left out

COc1cc2c(cc1OC)[C@@H]1C(=O)c3ccc4c(c3O[C@@H]1CO2)C=CC(C)(C)O4 [deguelin, Deguelin]
IC50 [1]: < 10 nM | reversibility of effects on cell growth ([2]; 10^−7 M for 1, 2 or 3 days, then 5 days without deguelin): irreversible | decrease in cell growth ([2]; 10^−7 M, 1 day): 67.1% | effect on growth ([2]; 1799 cells infected with Ad5CMV-MyrAkt-HA, 10^−6 M): did not decrease the growth | decrease in growth relative to untreated control ([2]; 1799 cells uninfected or infected with 5×10^3 particles/cell Ad5CMV, 10^−7 M, 2 days): 54% | activity at 0.1 µM ([2]; Homo sapiens, read-out: growth as percent of control cell growth): 85% | effect on growth of NHBE cells [3]: minimal effect | cells undergoing apoptosis ([4]; 10^−7 M, 2 days, 1799 cells infected with Ad5CMV-MyrAkt-HA): less than 10% | cells undergoing apoptosis ([4]; 10^−7 M, 2 days, 1799 cells uninfected or infected with control adenovirus): approximately 40% | cells undergoing apoptosis ([4]; 10^−7 M, 3 days): 92.2% | cells undergoing apoptosis ([4]; 10^−8 M, 3 days): 68.5% | cells undergoing apoptosis ([4]; 10^−9 M, 3 days): approximately 3.3% | apoptosis (TUNEL, DNA fragmentation) [5]: neither a TUNEL-positive cell population nor fragmented DNA | levels of pAkt and pGSK-3β [6]: decreased the levels of pAkt and pGSK-3β in a time-dependent manner | PARP cleavage ([6]; 10^−9 M to 10^−7 M, 1 day): increased PARP cleavage | apoptotic events [7]: did not induce detectable apoptotic events

From US20040005294A1, “IGFBP-3 in the diagnosis and treatment of cancer” (priority 2002, published 2004)
